Measured values published in patent US10131652B2, “Pyrimidinyloxy benzene derivatives as herbicides” (E. I. DU PONT DE NEMOURS AND COMPANY, priority 2014, dated 2018).

How the values were obtained:
Format in all cases: in vivo
[1] = system: Italian ryegrass (Lolium multiflorum); experiment: Test B pre-/postemergence plant response
Procedure, shortened: (§1)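 Evaluation is visual, about 10 days after application, rating injury from 0 (none) to 100 (complete control) relative to untreated controls. Application was a preemergence soil spray on seeded pots or a postemergence spray on one- to two-leaf plants.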

[2] = system: barnyardgrass (Echinochloa crus-galli); experiment: Test B pre-/postemergence plant response
Procedure, shortened: as §1

corn (Zea mays) = experiment: Test B pre-/postemergence plant response
Procedure, shortened: as §1

[3] = system: giant foxtail (Setaria faberii); experiment: Test B pre-/postemergence plant response
Procedure, shortened: as §1

kochia (Kochia scoparia) = experiment: Test B pre-/postemergence plant response
Procedure, shortened: as §1

[4] = system: pigweed (Amaranthus retroflexus); experiment: Test B pre-/postemergence plant response
Procedure, shortened: as §1

[5] = system: ragweed (common ragweed, Ambrosia elatior); experiment: Test B pre-/postemergence plant response
Procedure, shortened: as §1

[6] = system: wheat (Triticum aestivum); experiment: Test B pre-/postemergence plant response
Procedure, shortened: as §1

[7] = system: blackgrass (Alopecurus myosuroides); experiment: Test B postemergence plant response
Procedure, shortened: (§2)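 Values are visual control ratings (0 to 100) recorded approximately 10 days after postemergence application to greenhouse-grown plants of 2 to 10 cm, one- to two-leaf stage, each judged against untreated controls.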

[8] = system: galium (catchweed bedstraw, Galium aparine); experiment: Test B postemergence plant response
Procedure, shortened: as §2

[9] = system: barnyardgrass (Echinochloa crus-galli); experiment: Test C flooded paddy test plant response; conditions: Flood, 250 g ai/ha; scale of 0 to 100 where 0 is no effect and 100 is complete control; 13 to 15 days
Procedure, shortened: (§3)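 Greenhouse paddy assay, 13–15 days. Treatment into 3 cm floodwater over 2-leaf plants; visual 0–100 rating against controls.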

[10] = system: ducksalad (Heteranthera limosa); experiment: Test C flooded paddy test plant response; conditions: Flood, 250 g ai/ha; scale of 0 to 100 where 0 is no effect and 100 is complete control; 13 to 15 days
Procedure, shortened: as §3

rice (Oryza sativa) = experiment: Test C flooded paddy test plant response; conditions: Flood, 250 g ai/ha; scale of 0 to 100 where 0 is no effect and 100 is complete control; 13 to 15 days
Procedure, shortened: as §3

[11] = system: small-flower umbrella sedge (Cyperus difformis); experiment: Test C flooded paddy test plant response; conditions: Flood, 250 g ai/ha; scale of 0 to 100 where 0 is no effect and 100 is complete control; 13 to 15 days
Procedure, shortened: as §3

[12] = 31 g ai/ha, Preemergence, 0 to 100 scale where 0 is no effect and 100 is complete control
[13] = 125 g ai/ha, postemergence, 0 to 100 scale, 0 no effect, 100 complete control
[14] = 31 g ai/ha, Postemergence, 0 to 100 scale, 0 no effect, 100 complete control
[15] = Preemergence, 125 g ai/ha, 0 to 100 scale where 0 is no effect and 100 is complete control
[16] = Postemergence, 31 g ai/ha, 0 to 100 scale (0 no effect, 100 complete control)
[17] = Preemergence, 125 g ai/ha, 0 to 100 scale (0 no effect, 100 complete control)
[18] = Preemergence, 31 g ai/ha, 0 to 100 scale (0 no effect, 100 complete control)

Clc1cnc(Oc2ccccc2-c2nnc(C3CC3)o2)nc1 [Compound 122]
Plant response rating, Ryegrass, Italian [1, 12]: 0 | Plant response rating, Ryegrass, Italian [1, 13]: 0 | Plant response rating, Barnyardgrass [2, 14]: 0 | Plant response rating, Barnyardgrass [2, 12]: 0 | Plant response rating, Barnyardgrass [2, 13]: 0 | Plant response rating, Barnyardgrass [2, 15]: 0 | Plant response rating, Corn (corn (Zea mays); [14]): 0 | Plant response rating, Corn (corn (Zea mays); [13]): 0 | Plant response rating, Foxtail, Giant [3, 14]: 0 | Plant response rating, Foxtail, Giant [3, 12]: 0 | Plant response rating, Foxtail, Giant [3, 13]: 0 | Plant response rating, Foxtail, Giant [3, 15]: 0 | Plant response rating, Kochia (kochia (Kochia scoparia); [12]): 0 | Plant response rating, Kochia (kochia (Kochia scoparia); [13]): 20 | Plant response rating, Kochia (kochia (Kochia scoparia); [15]): 10 | Plant response rating, Pigweed [4, 12]: 10 | Plant response rating, Pigweed [4, 13]: 20 | Plant response rating, Ragweed [5, 12]: 0 | Plant response rating, Ragweed [5, 13]: 10 | Plant response rating, Wheat [6, 13]: 20 | Plant response rating, Blackgrass [7, 14]: 0 | Plant response rating, Blackgrass [7, 13]: 0 | Plant response rating, Galium [8, 13]: 20 | Barnyardgrass plant response rating [9]: 0 | Ducksalad plant response rating [10]: 0 | Rice plant response rating (rice (Oryza sativa)): 0 | Sedge, Umbrella plant response rating [11]: 0

Fc1cnc(Oc2ccccc2-c2cnccn2)nc1 [Compound 164]
Plant response rating, Ryegrass, Italian [1, 12]: 0 | Plant response rating, Ryegrass, Italian [1, 13]: 0 | Plant response rating, Ryegrass, Italian [1, 16]: 0 | Ryegrass, Italian plant response rating [1, 17]: 0 | Plant response rating, Barnyardgrass [2, 12]: 0 | Plant response rating, Barnyardgrass [2, 13]: 0 | Plant response rating, Barnyardgrass [2, 16]: 0 | Barnyardgrass plant response rating [2, 17]: 0 | Plant response rating, Corn (corn (Zea mays); [13]): 0 | Plant response rating, Corn (corn (Zea mays); [16]): 0 | Plant response rating, Foxtail, Giant [3, 12]: 0 | Plant response rating, Foxtail, Giant [3, 13]: 0 | Plant response rating, Foxtail, Giant [3, 16]: 0 | Foxtail, Giant plant response rating [3, 17]: 0 | Plant response rating, Kochia (kochia (Kochia scoparia); [12]): 0 | Plant response rating, Kochia (kochia (Kochia scoparia); [13]): 0 | Plant response rating, Kochia (kochia (Kochia scoparia); [16]): 0 | Kochia plant response rating (kochia (Kochia scoparia); [17]): 0 | Plant response rating, Pigweed [4, 12]: 0 | Plant response rating, Pigweed [4, 13]: 30 | Plant response rating, Pigweed [4, 16]: 0 | Pigweed plant response rating [4, 17]: 30 | Plant response rating, Ragweed [5, 12]: 0 | Plant response rating, Ragweed [5, 13]: 30 | Plant response rating, Ragweed [5, 16]: 20 | Ragweed plant response rating [5, 17]: 0 | Plant response rating, Wheat [6, 13]: 0 | Plant response rating, Wheat [6, 16]: 0 | Plant response rating, Blackgrass [7, 13]: 0 | Plant response rating, Blackgrass [7, 16]: 0 | Plant response rating, Galium [8, 13]: 30 | Plant response rating, Galium [8, 16]: 10 | Barnyardgrass plant response rating [9]: 0 | Ducksalad plant response rating [10]: 0 | Rice plant response rating (rice (Oryza sativa)): 0 | Sedge, Umbrella plant response rating [11]: 0

Cc1cnc(Oc2ccccc2-c2cc(C(C)(F)F)on2)nc1 [Compound 173]
Plant response rating, Ryegrass, Italian [1, 12]: 0 | Plant response rating, Ryegrass, Italian [1, 13]: 20 | Plant response rating, Ryegrass, Italian [1, 16]: 0 | Ryegrass, Italian plant response rating [1, 17]: 20 | Plant response rating, Barnyardgrass [2, 12]: 60 | Plant response rating, Barnyardgrass [2, 13]: 70 | Plant response rating, Barnyardgrass [2, 16]: 30 | Barnyardgrass plant response rating [2, 17]: 90 | Plant response rating, Corn (corn (Zea mays); [13]): 40 | Plant response rating, Corn (corn (Zea mays); [16]): 10 | Plant response rating, Foxtail, Giant [3, 12]: 50 | Plant response rating, Foxtail, Giant [3, 13]: 90 | Plant response rating, Foxtail, Giant [3, 16]: 30 | Foxtail, Giant plant response rating [3, 17]: 100 | Plant response rating, Kochia (kochia (Kochia scoparia); [12]): 70 | Plant response rating, Kochia (kochia (Kochia scoparia); [13]): 100 | Plant response rating, Kochia (kochia (Kochia scoparia); [16]): 70 | Kochia plant response rating (kochia (Kochia scoparia); [17]): 100 | Plant response rating, Pigweed [4, 12]: 80 | Plant response rating, Pigweed [4, 13]: 80 | Plant response rating, Pigweed [4, 16]: 60 | Pigweed plant response rating [4, 17]: 100 | Plant response rating, Ragweed [5, 12]: 10 | Plant response rating, Ragweed [5, 13]: 60 | Plant response rating, Ragweed [5, 16]: 40 | Ragweed plant response rating [5, 17]: 70 | Plant response rating, Wheat [6, 13]: 0 | Plant response rating, Wheat [6, 16]: 0 | Plant response rating, Blackgrass [7, 13]: 70 | Plant response rating, Blackgrass [7, 16]: 30 | Plant response rating, Galium [8, 13]: 90 | Plant response rating, Galium [8, 16]: 50 | Barnyardgrass plant response rating [9]: 0 | Ducksalad plant response rating [10]: 80 | Rice plant response rating (rice (Oryza sativa)): 0 | Sedge, Umbrella plant response rating [11]: 60

FC(c1cc(-c2ccccc2Oc2ncc(Cl)cn2)no1)C(F)(F)F (stereo not drawn) [Compound 133]
Plant response rating, Ryegrass, Italian [1, 12]: 0 | Plant response rating, Ryegrass, Italian [1, 13]: 30 | Ryegrass, Italian plant response rating [1, 17]: 50 | Plant response rating, Barnyardgrass [2, 14]: 20 | Plant response rating, Barnyardgrass [2, 12]: 30 | Plant response rating, Barnyardgrass [2, 13]: 60 | Barnyardgrass plant response rating [2, 17]: 70 | Plant response rating, Corn (corn (Zea mays); [14]): 10 | Plant response rating, Corn (corn (Zea mays); [13]): 30 | Plant response rating, Foxtail, Giant [3, 14]: 20 | Plant response rating, Foxtail, Giant [3, 12]: 70 | Plant response rating, Foxtail, Giant [3, 13]: 50 | Foxtail, Giant plant response rating [3, 17]: 90 | Plant response rating, Kochia (kochia (Kochia scoparia); [12]): 50 | Plant response rating, Kochia (kochia (Kochia scoparia); [13]): 90 | Kochia plant response rating (kochia (Kochia scoparia); [17]): 90 | Plant response rating, Pigweed [4, 12]: 90 | Plant response rating, Pigweed [4, 13]: 100 | Pigweed plant response rating [4, 17]: 100 | Plant response rating, Ragweed [5, 12]: 0 | Plant response rating, Ragweed [5, 13]: 30 | Ragweed plant response rating [5, 17]: 10 | Plant response rating, Wheat [6, 13]: 10 | Plant response rating, Blackgrass [7, 14]: 30 | Plant response rating, Blackgrass [7, 13]: 70 | Plant response rating, Galium [8, 13]: 100 | Barnyardgrass plant response rating [9]: 40 | Ducksalad plant response rating [10]: 80 | Rice plant response rating (rice (Oryza sativa)): 40 | Sedge, Umbrella plant response rating [11]: 80

Cc1nnc(-c2ccccc2Oc2ncc(Cl)cn2)o1 [Compound 106]
Plant response rating, Ryegrass, Italian [1, 14]: 0 | Plant response rating, Ryegrass, Italian [1, 13]: 0 | Ryegrass, Italian plant response rating [1, 18]: 0 | Plant response rating, Ryegrass, Italian [1, 15]: 0 | Plant response rating, Barnyardgrass [2, 14]: 0 | Plant response rating, Barnyardgrass [2, 13]: 0 | Barnyardgrass plant response rating [2, 18]: 0 | Plant response rating, Barnyardgrass [2, 15]: 0 | Plant response rating, Corn (corn (Zea mays); [14]): 0 | Plant response rating, Corn (corn (Zea mays); [13]): 0 | Plant response rating, Foxtail, Giant [3, 14]: 0 | Plant response rating, Foxtail, Giant [3, 13]: 0 | Foxtail, Giant plant response rating [3, 18]: 0 | Plant response rating, Foxtail, Giant [3, 15]: 0 | Plant response rating, Kochia (kochia (Kochia scoparia); [14]): 0 | Plant response rating, Kochia (kochia (Kochia scoparia); [13]): 0 | Kochia plant response rating (kochia (Kochia scoparia); [18]): 0 | Plant response rating, Kochia (kochia (Kochia scoparia); [15]): 0 | Plant response rating, Pigweed [4, 14]: 0 | Plant response rating, Pigweed [4, 13]: 0 | Pigweed plant response rating [4, 18]: 0 | Plant response rating, Pigweed [4, 15]: 0 | Plant response rating, Ragweed [5, 14]: 0 | Plant response rating, Ragweed [5, 13]: 0 | Ragweed plant response rating [5, 18]: 0 | Plant response rating, Ragweed [5, 15]: 0 | Plant response rating, Wheat [6, 14]: 0 | Plant response rating, Wheat [6, 13]: 0 | Plant response rating, Blackgrass [7, 14]: 0 | Plant response rating, Blackgrass [7, 13]: 0 | Plant response rating, Galium [8, 14]: 0 | Plant response rating, Galium [8, 13]: 0 | Barnyardgrass plant response rating [9]: 0 | Ducksalad plant response rating [10]: 0 | Rice plant response rating (rice (Oryza sativa)): 0 | Sedge, Umbrella plant response rating [11]: 0
